Measurements reported in the Biogen ADME set (Fang et al. 2023).
Converted amounts (≈) assume the structure as drawn.

Conditions: for aqueous solubility: pH 6.8

| Structure (SMILES) | intrinsic clearance, human liver microsomes [mL/min/kg] | intrinsic clearance, rat liver microsomes [mL/min/kg] | aqueous solubility [µg/mL] | MDR1-MDCK efflux ratio | fraction unbound, human plasma | fraction unbound, rat plasma |
| --- | --- | --- | --- | --- | --- | --- |
| C=C(C)COc1ccc(C(=O)NCCc2cn3ccccc3n2)cc1 | 116 | 2190 | 27.4 (≈ 81.7 µM) | – | – | – |
| COc1cccc(CN2Cc3ccccc3OC3(CCOCC3)C2)c1 | 133 | 1580 | 16.1 (≈ 47.3 µM) | 0.527 | – | – |
| Cc1sc2nc(CN3CCOCC3)nc(N3CCN(c4ccncc4)CC3)c2c1C | 18.3 | 281 | 76.6 (≈ 180 µM) | 28.9 | – | – |
| CC(=O)N1CCC(C(=O)Nc2nccs2)(c2ccccc2)CC1 | 5.73 | 236 | 62.3 (≈ 189 µM) | 39.4 | – | – |
| CN(C)c1ccc2c(c1)Sc1cc(N(C)C)ccc1N2 | 31.8 | 153 | – | 6.59 | – | – |
| N#CCC1(n2cc(-c3ncnc4[nH]ccc34)cn2)CNC1 | – | – | 32.6 (≈ 117 µM) | – | – | – |
| c1ccc(-c2nccc(NCc3nnc4n3CCCCC4)n2)cc1 | 78.9 | 448 | – | – | – | – |
| CC1=CCN(C(=O)c2cc(C)nc3cc(C)cc(C)c23)CC1 | 97.7 | 2140 | – | 1.03 | – | – |
| CCCn1ncnc1-c1ccccc1SC | 82.5 | 765 | 19.9 (≈ 85.2 µM) | 0.798 | – | – |
| COCCc1nc(-c2ccccc2-c2ccccc2)n(CCO)n1 | 24.5 | 182 | 26.4 (≈ 81.6 µM) | 15.9 | – | – |
| COc1cc2c(cc1OC)[C@@H]1CC(=O)[C@@H](CC(C)C)CN1CC2 | 57.8 | 330 | – | 0.721 | – | – |
| CC(C)c1cc(C(=O)Nc2ncccc2Cl)no1 | 88.3 | 65.1 | – | – | – | – |
| CN(C)c1ccncc1CN1CCN(c2ccc(C(N)=O)cc2)CC1 | ≤ 4.74 | ≤ 10.7 | – | 18.8 | – | – |
| CC(C)[C@H](O)C(=O)N[C@@H](C)C(=O)N[C@@H]1C(=O)N(C)CCc2ccccc21 | 6.33 | 14.2 | – | – | – | – |
| O=C(CC1CCN(c2ncc(Cl)cn2)CC1)N1CCOCC1 | ≤ 4.74 | 46.9 | 51.2 (≈ 158 µM) | 0.764 | – | – |
| Cc1cccc(OCC(=O)Nc2ccn(C)n2)c1 | 21.1 | 479 | 43.5 (≈ 177 µM) | – | – | – |
| CN(C(=O)c1cc2ccc(C(C)(C)C)cc2[nH]1)C1(C#N)CCC1 | – | – | 0.22 (≈ 0.711 µM) | 0.492 | – | – |
| Cc1csc(CCNc2ncccc2C#N)n1 | 73 | 876 | 32.1 (≈ 131 µM) | – | – | – |
| Cc1cc(C)c(NC(=O)c2ccnc(OC3CCC3)c2)c(C)n1 | ≤ 4.74 | 54.3 | 36.1 (≈ 116 µM) | 1.43 | – | – |
| CNc1cc(Nc2cccn(-c3ccccn3)c2=O)nn2c(C(=O)N[C@@H]3C[C@@H]3F)cnc12 | ≤ 4.74 | 24.7 | 1.23 (≈ 2.83 µM) | 31.1 | 0.098 | 0.033 |

| Structure (SMILES) | intrinsic clearance, human liver microsomes [mL/min/kg] | intrinsic clearance, rat liver microsomes [mL/min/kg] | aqueous solubility [µg/mL] | MDR1-MDCK efflux ratio | fraction unbound, human plasma | fraction unbound, rat plasma |
| --- | --- | --- | --- | --- | --- | --- |
| CN(C)C(=O)c1sc2nc(C3(C)CCN(c4ncccn4)CC3)ccc2c1N | 32 | 111 | 65.8 (≈ 166 µM) | 1.25 | – | – |
| Cc1cnn(C2CN(CC3(O)CCCCC3)C2)c1 | 54.7 | 1900 | 32.6 (≈ 131 µM) | 0.488 | – | – |
| COc1nn(C)cc1C(=O)Nc1cccc2cnccc12 | 99.7 | 180 | 40.5 (≈ 143 µM) | – | 0.32 | 0.389 |
| Cc1ccc(CCNc2nc(C)cc(C)n2)cn1 | 12.7 | 192 | – | – | – | – |
| Cc1nc(-c2ccccc2)c(C(=O)Nc2ccc(Cl)c(C(F)(F)F)c2)s1 | – | – | 0.42 (≈ 1.06 µM) | 0.723 | – | – |
| c1cc(Nc2cc(C3CC3)[nH]n2)nc(Nc2ccc3nc[nH]c3c2)n1 | 15.1 | 71.4 | – | 2.39 | – | – |
| O=C(C1CC1c1ccccc1F)N1CCC(n2c(=O)[nH]c3ccccc32)CC1 (stereo not drawn) | 47.2 | 1190 | 49.9 (≈ 131 µM) | – | – | – |
| CCSCc1nc(N)c2ccccc2n1 | 30.3 | 121 | 30.4 (≈ 139 µM) | 0.681 | – | – |
| C=CC(=O)Nc1cccc(Nc2nc(Nc3ccc(OCCOC)cc3)ncc2F)c1 | 32.1 | 391 | 3.8 (≈ 8.97 µM) | 3.94 | – | – |
| O=C(CCc1cccs1)Nc1ccc(N2CCOCC2)cn1 | 21.6 | 49.2 | 32.2 (≈ 101 µM) | 0.618 | – | – |
| CC(=O)N(C)[C@@H]1CO[C@@H]2CCN(C[C@]3(O)CC[C@@H](C(C)(C)C)CC3)C[C@@H]2C[C@@]1(C)O | 65 | 276 | – | 23.5 | – | – |
| O=C1N=C2C=CC=CN2C12Cc1ccccc1C2 | ≤ 4.74 | ≤ 10.7 | 37.4 (≈ 158 µM) | 4.09 | – | – |
| OC1CCN(c2nccc(-c3cccs3)n2)CC1 | 52.6 | 656 | – | 0.493 | – | – |
| Cn1ccc(C(=O)N2CCCC(c3cccc(-c4cccc(Cl)c4)n3)C2)n1 (stereo not drawn) | 63 | 669 | 26.7 (≈ 70.1 µM) | 0.822 | – | – |
| O=c1c2cccnc2ncn1[C@H]1CCN(Cc2ccccc2)C1 | ≤ 4.74 | 162 | – | 0.776 | – | – |
| N#CC1(NC(=O)CN2CCOCC2)CCCCCC1 | ≤ 4.74 | 65.6 | 45.1 (≈ 170 µM) | 2.14 | – | – |
| COc1cccc(-c2cccc(N)n2)c1F | 84.1 | 258 | 18.2 (≈ 83.4 µM) | 0.764 | – | – |
| Cc1nc(Cc2ccccc2)sc1C(=O)Nc1cccc(-c2ccn[nH]2)c1 | 30.4 | 406 | – | 2.86 | – | – |
| CCn1c(CN2CCCCCC2)nc2ccccc2c1=O | 25.7 | 2240 | – | 0.561 | – | – |
| C1CN(c2nc3c(c(N4CCSCC4)n2)SCC3)CCS1 | 126 | 1530 | – | 0.383 | – | – |

The remaining lines, values ahead:

| intrinsic clearance, human liver microsomes [mL/min/kg] | intrinsic clearance, rat liver microsomes [mL/min/kg] | aqueous solubility [µg/mL] | MDR1-MDCK efflux ratio | fraction unbound, human plasma | fraction unbound, rat plasma | Structure (SMILES) |
| --- | --- | --- | --- | --- | --- | --- |
| 21.7 | 619 | 4.13 (≈ 11.8 µM) | 3.06 | – | – | O=C1CC2(CCN(C(=O)NCc3ccccc3)CC2)Oc2ccccc21 |
| ≤ 4.74 | ≤ 10.7 | 28 (≈ 128 µM) | 0.87 | – | – | NC(=O)Cn1cc(-c2ccc(F)cc2)cn1 |
| ≤ 4.74 | 22.9 | 68.6 (≈ 192 µM) | 2.44 | – | – | CC(=O)N1CCN(c2ncc(-c3cc(C)no3)c([C@H]3CCCO3)n2)CC1 |
| 230 | 1610 | – | 2.03 | – | – | CC1CCC(N(Cc2nnc(C3CCC3)o2)C2CCC(O)CC2)CC1 (stereo not drawn) |
| – | – | 17.8 (≈ 46 µM) | 24.1 | – | – | Cc1cc(C)c(S(=O)(=O)Nc2ccc3c(c2)OCO3)c(C)c1-n1cnnn1 |
| 8.35 | 69.8 | 29.2 (≈ 70.9 µM) | 15.4 | – | – | CC(C)(O)C(=O)N1CCC(c2ccc3c(NCc4ccccc4F)n[nH]c3n2)CC1 |
| 140 | 901 | – | 0.596 | – | – | Cc1ccc(=O)n(CCOc2cc(F)cc(Br)c2)n1 |
| 101 | 631 | – | 0.933 | – | – | CCCNS(=O)(=O)Nc1ncnc(OCCOc2ncc(Br)cn2)c1-c1ccc(Br)cc1 |
| – | – | 0.25 (≈ 0.688 µM) | 0.904 | – | – | COc1ccc(-c2nnc3nn(C)c(=O)n3c2-c2ccc(OC)cc2)cc1 |
| 35.6 | 717 | – | 2.4 | – | – | O=C1CCC(=O)N1CCSc1ncc(-c2ccc(F)cc2)[nH]1 |
| 12.5 | 2880 | – | 1.3 | – | – | CC(COc1ccccc1Cc1ccccc1)N1CCCCC1 (stereo not drawn) |
| 96.3 | 1050 | 67 (≈ 197 µM) | 0.243 | – | – | COc1ccccc1C(=O)NCc1nc(C)cc(N2CCCCC2)n1 |
| 145 | 1470 | 29.6 (≈ 86.2 µM) | 0.656 | – | – | c1ccc(-c2nsc(N3CCCN(c4nccs4)CC3)n2)cc1 |
| 15 | 14.7 | 36.3 (≈ 65.7 µM) | 133 | – | – | CCc1nc(C(N)=O)c(Nc2ccc(N3CCC(N4CCN(C)CC4)CC3)c(OC)c2)nc1NC1CCOCC1 |
| – | – | 0.73 (≈ 2.16 µM) | – | – | – | COc1ccccc1-c1nc(-c2ccc(NC(C)=O)cc2)c(C)s1 |
| ≤ 4.74 | ≤ 10.7 | – | 4.87 | – | – | O=C(NCc1cnn2cccnc12)c1ccccc1-n1cnnc1 |
| 14.6 | 372 | – | – | – | – | Nc1c(-c2ccc(F)cc2)ncn1Cc1ccccc1 |
| 8.46 | 72.9 | – | – | – | – | COc1c(C)cnc(Cn2cnc3c(Cl)nc(N)nc32)c1C |
